Data: ChEMBL document CHEMBL1201862, “PubChem BioAssay data set” (2004)
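Values below derive from 48-hour exposures of cells grown in 96-well plates, with endpoints linearly interpolated between the two concentrations bracketing the appropriate inhibition level. GI50 marks 50% less growth.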 Activity calls are given as the source filed them. Rule as the data show it: active = GI50 up to about 1.1 µM and inactive = higher.

Tests used:
Experiment in all cases: NCI tumour cell line growth inhibition, 48 h
MDA-MB-435 = system: MDA-MB-435
Hs-578T = system: Hs-578T
DU-145 = system: DU-145
BT-549 = system: BT-549
MDA-N = system: MDA-N
PC-3 = system: PC-3
T47D = system: T47D
MDA-MB-231 = system: MDA-MB-231
786-0 = system: 786-0

Measured: GI50

O=S(=O)(c1ccc(I)cc1)N(c1ccccc1)S(=O)(=O)C(F)(F)C(F)(F)C(F)(F)C(F)(F)F
inactive: MDA-MB-435 > 100 µM | Hs-578T 30.2 µM | DU-145 46.7 µM | BT-549 > 100 µM | MDA-N 60.1 µM | PC-3 38.7 µM | T47D 35.5 µM | MDA-MB-231 23 µM | 786-0 45.7 µM

CC(=O)Oc1ccccc1[C@H]1CC(=O)C[C@H](c2ccccc2OC(C)=O)C12C(=O)c1ccccc1C2=O
inactive: MDA-MB-435 14.7 µM | Hs-578T 27.7 µM | DU-145 35.4 µM | BT-549 24.9 µM | MDA-N 16 µM | PC-3 17.5 µM | T47D 40.2 µM | MDA-MB-231 27.1 µM

COc1ccc(CCn2nccc2C)cc1
inactive: MDA-MB-435 > 100 µM | Hs-578T > 100 µM | DU-145 > 100 µM | BT-549 > 100 µM | MDA-N > 100 µM | PC-3 > 100 µM | T47D 74.1 µM | MDA-MB-231 > 100 µM

COc1ccccc1-c1cc(O)c2cc(C)cnc2n1
inactive: MDA-MB-435 3.8 µM | Hs-578T 43.4 µM | DU-145 47.9 µM | BT-549 45.5 µM | T47D 63.4 µM | MDA-MB-231 67.3 µM

C=C1C2=C(CCCC2)C(=O)OC12CCCCC2
inactive: 786-0 > 100 µM

O=C(OCCO)C1CC2CC1C1(C2)OCCO1 (configuration not stated)
inactive: 786-0 > 100 µM

O=NN(CC1(O)OCC(O)C(O)C1O)C(Cc1c[nH]c2ccccc12)C(=O)O (configuration not stated)
inactive: 786-0 > 100 µM

CCCCSCCC(N)P(=O)(O)O (configuration not stated)
inactive: MDA-MB-435 > 100 µM | Hs-578T > 100 µM | DU-145 > 100 µM | MDA-N > 100 µM | PC-3 > 100 µM | T47D > 100 µM | MDA-MB-231 > 100 µM

c1ccc2c(NCCCCCCCCNc3cccc4ccccc34)cccc2c1
inactive: 786-0 23.4 µM
